Test results published in US10583206B2, “Radioactive probe for detecting hydrogen sulfide” (KYUNGPOOK NATIONAL UNIVERSITY INDUSTRY-ACADEMIC COOPERATION …, priority 2015, dated 2020).

Assays:
[1] = Hydrogen sulfide selectivity test: decomplexation by Na2S2O3; type: physicochemical; conditions: 100 μM or (1 mM), 37° C. for 15 minutes
Experimental: (§1) In addition to hydrogen sulfide, many different anions, radicals, etc. exist in the body. Therefore, to examine selective reactivity of the ^64Cu-labeled complex compound according to the present disclosure for sulfide ions, the following experiment was performed.
(§2) About 45 μCi-55 μCi of the ^64Cu-labeled complex compound (250 μL of triple distilled water) was mixed with 100 μM of various anion solutions (250 μL of triple distilled water) including biothiol, and stirred at 37° C. for 15 minutes.
(§3) Formation of copper sulfide (^64CuS) was quantified by using a radio-TLC scanner.
(§4) Various biothiol or salt solutions were prepared by dissolving the compounds in triple distilled water.
(§5) In Table, concentrations of all biothiols and other competitive materials are 100 μM. Further, specific concentrations of biothiols, anions, and oxidants used in Table are as follows: [L-Cys (1 mM); L-Hcys (10 mM); GSH (10 mM); DL-dithiothretitol (DTT, 100 μM); L-ascorbic acid (L-AsA, 10 mM); 2-mercaptoethanol (2-ME, 10 mM); NaCl (10 mm); KI (1 mM); Na2S2O3 (1 mM); Na2S2O5 (1 mM); NaOAc (1 mM); H2O2 ([…]); NaClO4 (100 μM); NaHCO3 (100 μM); NaNO2 ([…]); NaN3 (100 μM); ATB 337 (100 μM); diallyl trisulphide (100 μM)].

[2] = Hydrogen sulfide selectivity test: decomplexation by Na2S2O5; type: physicochemical; conditions: 100 μM or (1 mM), 37° C. for 15 minutes
Experimental: as §1, §2, §3, §4, §5

[3] = Hydrogen sulfide selectivity test: decomplexation by NaOAc; type: physicochemical; conditions: 100 μM or (1 mM), 37° C. for 15 minutes
Experimental: as §1, §2, §3, §4, §5

Pancreatitis model = experiment: Imaging study in pancreatitis model; type: in vivo, Balb/c mouse; conditions: optical images; PET images after excision of tissues
Experimental: Caerulein (50 μg/kg) was intraperitoneally injected into Balb/c mouse seven times at hourly intervals to prepare a pancreatitis model.
Optical images were obtained after injecting each of the ^64Cu-labeled complex compounds of Example 1 and Example 20 into the prepared rat models having pancreatitis, and PET images were obtained after excision of tissues thereof.

[4] = Hydrogen sulfide selectivity test: decomplexation by NaClO4; type: physicochemical; conditions: NaClO4 (100 μM); 37° C. for 15 minutes
Experimental: as §1, §2, §3, §4, §5

[5] = Hydrogen sulfide selectivity test: decomplexation by NaCl; type: physicochemical; conditions: 100 μM or NaCl (10 mm), 37° C. for 15 minutes
Experimental: as §1, §2, §3, §4, §5

[6] = Hydrogen sulfide selectivity test: decomplexation by DTT; type: physicochemical; conditions: DL-dithiothretitol (DTT, 100 μM); 37° C. for 15 minutes
Experimental: as §1, §2, §3, §4, §5

[7] = Hydrogen sulfide selectivity test: decomplexation by ATB 337; type: physicochemical; conditions: ATB 337 (100 μM); 37° C. for 15 minutes
Experimental: as §1, §2, §3, §4, §5

[8] = Hydrogen sulfide selectivity test: decomplexation by GSH; type: physicochemical; conditions: 100 μM or GSH (10 mM), 37° C. for 15 minutes
Experimental: as §1, §2, §3, §4, §5

[9] = Test of hydrogen sulfide detection sensitivity (% decomplexation with NaHS, radio-TLC); type: physicochemical; conditions: for % decomplexation: 37° C. for 15 minutes
Summary of the method: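 ^64Cu-labelled complex (about 45 μCi-55 μCi) mixed with NaHS at various concentrations in triple distilled water, 500 μL total, stirred 15 min at 37° C. Copper sulfide (^64CuS) formation quantified as % decomplexation by radio-TLC scanner.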

[10] = Hydrogen sulfide selectivity test: decomplexation by NaN3; type: physicochemical; conditions: NaN3 (100 μM); 37° C. for 15 minutes
Experimental: as §1, §2, §3, §4, §5

[11] = test system: Myocardial infarction model; experiment: Imaging study in myocardial infarction model (PET); type: in vivo, Sprague-Dawley rats
Excerpt: (2) Myocardial Infarction Model
A myocardial infarction model was established by using Sprague-Dawley rats (12-week-old or older, about 250 g). 2 days later after induction of myocardial infarction by occlusion of the coronary arteries in the heart, the rats were used in imaging tests. It is a known fact that myocardial infarction sites show high concentrations of hydrogen sulfide.
It is known that myocardial infarction sites show high concentrations of hydrogen sulfide. Thus, after induction of myocardial infarction by coronary artery occlusion in rats, 50 μCi-900 μCi of the ^64Cu-labeled complex compound was injected via the tails of the rats, and uptake in the myocardial infarction site was examined over time by PET imaging.
36 hours after establishment of the myocardial infarction model, 730 μCi of the radioisotope-labeled complex compound of the present disclosure was injected and nuclear medicine imaging was performed. 2 days later, […] of FDG was injected into the same rat, and then FDG-PET images were obtained. Results are shown in FIGS. 15 to 17 (in the nuclear medicine imaging, the upper image represents a transverse image, and the lower image represents a coronal image).

[12] = Hydrogen sulfide selectivity test: decomplexation by Kl; type: physicochemical; conditions: 100 μM or KI (1 mM), 37° C. for 15 minutes
Experimental: as §1, §2, §3, §4, §5

[13] = Hydrogen sulfide selectivity test: decomplexation by NaHCO3; type: physicochemical; conditions: NaHCO3 (100 μM); 37° C. for 15 minutes
Experimental: as §1, §2, §3, §4, §5

[14] = Hydrogen sulfide selectivity test: decomplexation by Hcys; type: physicochemical; conditions: 100 μM or L-Hcys (10 mM), 37° C. for 15 minutes
Experimental: as §1, §2, §3, §4, §5

[15] = Hydrogen sulfide selectivity test: decomplexation by DAT (diallyl trisulphide); type: physicochemical; conditions: DAT = diallyl trisulphide (100 μM); 37° C. for 15 minutes
Experimental: as §1, §2, §3, §4, §5

[16] = Hydrogen sulfide selectivity test: decomplexation by NaNO2; type: physicochemical; conditions: NaNO2 (100 µM); 37° C. for 15 minutes
Experimental: as §1, §2, §3, §4, §5

[17] = Hydrogen sulfide selectivity test: decomplexation by Cys; type: physicochemical; conditions: 100 μM or L-Cys (1 mM), 37° C. for 15 minutes
Experimental: as §1, §2, §3, §4, §5

[18] = Hydrogen sulfide selectivity test: decomplexation by ME; type: physicochemical; conditions: 2-mercaptoethanol; 100 μM or (2-ME, 10 mM); 37° C. for 15 minutes
Experimental: as §1, §2, §3, §4, §5

In the case of `C1C[N]2CC[N]3CC[N]4CC[N]1[64Cu]243` [Example 1, ^64Cu-labeled cyclen], the “Decomplexation [%]” value [1] is reported as 0.4 ± 0.0%, the “Decomplexation [%]” value [2] is reported as 0.5 ± 0.2% and the “Decomplexation [%]” value [3] is reported as 0.6 ± 0.1%. The “uptake in the pancreas” value (Pancreatitis model) was “high uptakes”, the “Decomplexation [%]” value [4] was 0.6 ± 0.2% and the “Decomplexation [%]” value [5] was 0.2 ± 0.0%. The “Decomplexation [%]” value [6] was 0.6 ± 0.4%, the “Decomplexation [%]” value [7] was 0.7 ± 0.4% and the “Decomplexation [%]” value [8] was 0.7 ± 0.0%. For the same molecule, the “% decomplexation” value ([9]; NaHS 0 μM) was 0%, the “% decomplexation” value ([9]; NaHS 1 μM) was 3% and the “% decomplexation” value ([9]; NaHS 10 μM) was 11%. The “% decomplexation” value ([9]; NaHS 15 μM) was 63%, the “% decomplexation” value ([9]; NaHS 20 μM) was 95% and the “% decomplexation” value ([9]; NaHS 50 μM) was 100%. The “% decomplexation” value ([9]; NaHS 100 μM) was 100%, the “sensitivity for hydrogen sulfide (lowest detectable concentration), in words” value ([9]; comparison among tested complexes) was “most excellent sensitivity for hydrogen sulfide” and the “Decomplexation [%]” value [10] was 0.3 ± 0.2%. The “uptake in the myocardial infarction site” value ([11]; image taken at 24 hours after injection) was “high uptake was detected in the myocardial infarction site”, the “Decomplexation [%]” value [12] was 0.7 ± 0.2% and the “Decomplexation [%]” value [13] was 0.6 ± 0.3%. For the same molecule, the “Decomplexation [%]” value [14] was 1.4 ± 0.4%, the “Decomplexation [%]” value [15] was 0.4 ± 0.3% and the “Decomplexation [%]” value [16] was 0.6 ± 0.0%. For the same molecule, the “Decomplexation [%]” value [17] was 0.5 ± 0.1% and the “Decomplexation [%]” value [18] was 0.5 ± 0.1%.
With `C1C[N]2CC[N]3CC[N]1[64Cu]23` [Example 20, ^64Cu-labeled TACN] the “Decomplexation [%]” value [1] was 0.5 ± 0.0%, the “Decomplexation [%]” value [2] was 0.5 ± 0.2% and the “Decomplexation [%]” value [3] was 0.3 ± 0.0%. The “uptake in the pancreas” value (Pancreatitis model) was “high uptakes”, the “Decomplexation [%]” value [4] was 0.4 ± 0.1% and the “Decomplexation [%]” value [5] was 0.5 ± 0.0%. For the same molecule, the “Decomplexation [%]” value [6] was 0.9 ± 0.1%, the “Decomplexation [%]” value [7] was 0.7 ± 0.2% and the “Decomplexation [%]” value [8] was 2.6 ± 0.0%. The “% decomplexation” value ([9]; NaHS 0 μM) was 0%, the “% decomplexation” value ([9]; NaHS 1 μM) was 0% and the “% decomplexation” value ([9]; NaHS 10 μM) was 9%. The “% decomplexation” value ([9]; NaHS 15 μM) was 11%, the “% decomplexation” value ([9]; NaHS 20 μM) was 13.5% and the “% decomplexation” value ([9]; NaHS 50 μM) was 24.6%. The “% decomplexation” value ([9]; NaHS 100 μM) was 54.4%, the “Decomplexation [%]” value [10] was 0.4 ± 0.0% and the “uptake / visualisation of the myocardial infarction site” value ([11]; PET imaging after injection) was “the myocardial infarction site was clearly observed”. The “Decomplexation [%]” value [12] was 0.4 ± 0.2%, the “Decomplexation [%]” value [13] was 0.6 ± 0.4% and the “Decomplexation [%]” value [14] was 1.1 ± 0.5%. For the same molecule, the “Decomplexation [%]” value [15] was 0.7 ± 0.6%, the “Decomplexation [%]” value [16] was 0.4 ± 0.0% and the “Decomplexation [%]” value [17] was 0.8 ± 0.3%. For the same molecule, the “Decomplexation [%]” value [18] was 0.4 ± 0.0%.
